# Laboratory results: patent US6656690B2, “Mass spectrometric methods for biomolecular screening” (priority 1998, dated 2003)
# “Also recorded” adds a separate entry of the source.
# How the values were obtained:
# 16S A site 27mer RNA = experiment: ESI-FTICR mass spectrometric (MASS) binding assay, 16S A-site 27-mer RNA model; design: species or system prokaryotic; conditions: for complexes observed with 16S (in words): aminoglycosides 500 nM each, mixture with untagged 16S and tagged 18S
# Experimental: (§1) The ESI-FTICR mass spectrum depicted in FIG. 26 was acquired from a […] mixture of untagged 16S and tagged 18S in the presence of an equimolar mixture of five aminoglycosides. It is to be understood that other biomolecules may be used in place of the aminoglycosides. The aminoglycosides have been selected from two classes of 2-deoxystreptamines: 4,5-disubstituted (paromomycin, and lividomycin), and 4,6-disubstituted (tobramycin, sisomicin, and bekanamycin), present at 500 nM each. Complexes corresponding to 1:1 binding of individual aminoglycosides were observed between 16S and all members of the aminoglycoside mixture, with the apparent affinities estimated from the abundances of the respective complexes differing substantially. Signal intensities from the complexes with paromomycin (m/z 1925.572) and lividomycin (m/z 1954.790) are consistent with MS-measured dissociation constants of 110 nM and 28 nM, respectively. The intensities of 16S complexes with tobramycin (m/z 1895.960), bekanamycin (m/z 1899.171), and sisomicin (m/z 1891.972) were reduced, consistent with solution dissociation constants of […]. Wang, et al., Biochemistry, 1997, 36, 768-779. […] The spectrum is calibrated using multiple isotope peaks of the (M-5H^+)^5− and (M-4H^+)^4− charge states of the free RNA as internal mass standards which brackets the m/z range in which complexes are observed. The average mass measurement error obtained for the complexes in FIG. 26 is 2.1 ppm when m/z differences are measured between the most abundant (4 ^13C) isotope peak of 16S and each complex. This post calibration scheme is easily automated which enables rapid, high precision mass measurements of affinity selected ligands against multiple targets in a high throughput mode.
# A preferred first step of MASS screening involves mixing the RNA target (or targets) with a combinatorial library of ligands designed to bind to a specific site on the target molecule(s). Specific noncovalent complexes formed in solution between the target(s) and any library members are transferred into the gas phase and ionized by ESI. As described herein, from the measured mass difference between the complex and the free target, the identity of the binding ligand can be determined. The dissociation constant of the complex can be determined in two ways: if a ligand with a known binding affinity for the target is available, a relative Kd can be measured by using the known ligand as an internal control and measuring the abundance of the unknown complex to the abundance of the control, alternatively, if no internal control is available, Kd's can be determined by making a series of measurements at different ligand concentrations and deriving a Kd value from the “titration” curve.
# Electrospray ionization Fourier transform ion cyclotron resonance mass spectrometry was performed on a solution containing […] 16S RNA (the 27-mer construct shown in FIG. 24) and 500 nM paromomycin is depicted in FIG. 13. A 1:1 complex was observed between the paromomycin and the RNA consistent with specific aminoglycoside binding at the A-site. The insets show the measured and calculated isotope envelopes of the (M-5H+)5− species of the free RNA and the RNA-paromomycin complex. High precision mass measurements were acquired using isotope peaks of the (M-5H+)^5− and (M-4H^+)^4− charge states of the free RNA as internal mass standards and measuring the m/z difference between the free and bound RNA.
# ESI-MS measurements of a solution containing a fixed concentration of RNA at different concentrations of ligand were obtained. By measuring the ratio of bound:unbound RNA at varying ligand concentrations, the Kd was determined by 1/slope of the “titration curve”. The MS derived value of 110 nM is in good agreement with previously reported literature value of 200 nM. […]
# 18S A site model = experiment: ESI-FTICR mass spectrometric (MASS) binding assay, mass-tagged 18S A-site 27-mer RNA model; design: species or system eukaryotic; conditions: aminoglycosides 500 nM each, mixture with untagged 16S and tagged 18S
# Experimental: as §1, with “The” for “The spectrum is calibrated using multiple isotope peaks of the (M-5H^+)^5− and (M-4H^+)^4− charge states of the free RNA as internal mass standards which brackets the m/z range in which complexes are observed. The”, “This post calibration scheme is easily automated which enables rapid, high precision mass measurements of affinity selected ligands against multiple targets in a high throughput mode.” left out
complexes observed with 16S (in words) (16S A site 27mer RNA),complexes observed with 16S (in words) (16S A site 27mer RNA; listed as bekamycin),complexes observed with 16S (in words) (16S A site 27mer RNA; listed as sisomycin),Structure (SMILES),complexes observed with 18S (in words) (18S A site model),"Kd (16S A site 27mer RNA; ESI-FTICR MS, 16S A site 27mer, read-out: MS-measured dissociation constant (KD)) [nM]",enhancement of binding affinity for 16S relative to paromomycin (16S A site 27mer RNA; lividomycin vs paromomycin) [fold]
reduced,Weaker complexes,–,NC[C@H]1O[C@H](O[C@H]2[C@H](O)[C@@H](O[C@H]3O[C@H](CO)[C@@H](O)[C@H](N)[C@H]3O)[C@H](N)C[C@@H]2N)[C@H](N)[C@@H](O)[C@@H]1O [bekanamycin],–,–,–
reduced,–,Weaker complexes,CN[C@@H]1[C@@H](O)[C@@H](O[C@@H]2[C@@H](O)[C@H](O[C@H]3OC(CN)=CC[C@H]3N)[C@@H](N)C[C@H]2N)OC[C@]1(C)O [sisomicin],–,–,–
reduced; also recorded: Weaker complexes,–,–,NC[C@H]1O[C@H](O[C@H]2[C@H](O)[C@@H](O[C@H]3O[C@H](CO)[C@@H](O)[C@H](N)[C@H]3O)[C@H](N)C[C@@H]2N)[C@H](N)C[C@@H]1O [tobramycin],–,–,–

Structure (SMILES),complexes observed with 16S (in words) (16S A site 27mer RNA),complexes observed with 16S (in words) (16S A site 27mer RNA; listed as bekamycin),complexes observed with 16S (in words) (16S A site 27mer RNA; listed as sisomycin),complexes observed with 18S (in words) (18S A site model),"Kd (16S A site 27mer RNA; ESI-FTICR MS, 16S A site 27mer, read-out: MS-measured dissociation constant (KD)) [nM]",enhancement of binding affinity for 16S relative to paromomycin (16S A site 27mer RNA; lividomycin vs paromomycin) [fold]
NC[C@@H]1O[C@H](O[C@H]2[C@@H](O)[C@H](O[C@@H]3[C@@H](O)[C@H](N)C[C@H](N)[C@H]3O[C@H]3O[C@H](CO)[C@@H](O)C[C@H]3N)O[C@@H]2CO)[C@H](N)[C@@H](O)[C@@H]1O[C@H]1O[C@H](CO)[C@@H](O)[C@H](O)[C@@H]1O [lividomycin],High affinity complexes,–,–,complete absence of complexes,28,~4
